Data set [1] can be described thus: Behaviour of the solid on filtration under ambient conditions / ambient humidity. It counts as physicochemical. The method, then:
Crude product (351 g) from the above example was dissolved in 1.5 L of methanol, then 625 mL of methanol was removed in vacuo. For the initial crystallization experiments, this solution was placed in a glass round-bottomed flask, and the side was scratched with a metal spatula. The solution was then stored at −20° C. for several weeks until a crystalline precipitate formed. […] For subsequent preparations, the methanol solution was seeded with 100 mg of crystalline nicotinamide riboside chloride, and the solution was allowed to stand at ambient temperature while the product crystallized over the course of several hours. Using a Buchner funnel filtration apparatus, the crystals were filtered and washed with 200 mL of ice-cold methanol. The product was dried on the filter, open to the air, for 1.5 h, then under high vacuum (<[…]) at ambient temperature for 18 h. The yield was 157 g (34%) of a light yellow solid. The product contained 0.9 molar equivalents of methanol by ^1H NMR integration (i.e., nicotinamide riboside chloride ●0.9 methanol crystals). This residual methanol could not be removed by additional drying at <40° C. […]

Data set [2] in a line: Thermal decomposition of the crystals on heating under vacuum, confirmed by 1H NMR in D2O. It counts as physicochemical. The method, then:
The crystalline nature of this product was confirmed by optical microscopy using polarized light (FIG. 5). A 50 mg portion of this material was dried under high vacuum (<1.0 mm Hg) and at ambient temperature for 48 h. […] The material completely decomposed, without melting, within 17 min at 100° C. at <1 mm Hg. (Decomposition was confirmed by ^1H NMR spectral analysis in D2O solution after the heating period.) In contrast, a sample could be heated at 80° C. for 1 h and <1 mm Hg with <3% decomposition. ^1H NMR (400 MHz, D2O) δ 9.63 (s, 1H, H2), 9.31 (d, 1H, J=5.9 Hz, H4), 9.01 (dd, 1H, J=8.0 Hz, 1.0 Hz, H6), 8.32 (dd, 1H, J=8.0 Hz, 5.9 Hz, H5), 6.29 (d, 1H, J=3.9 Hz, H1′), 4.55 (t, 1H, J=3.9 Hz, H2′), 4.50 (m, 1H, H4′), 4.38 (t, 1H, J=3.9 Hz, H3′), 4.08 (dd, 1H, J=12, 3 Hz, H5′), 3.93 (dd, 1H, J=12, 3, Hz, H5′); ^13C NMR (75 MHz, D2O) δ 165.8 (C7), 145.6 (C6), 142.6 (C4), 140.4 (C2), 133.9 (C3), 128.4 (C5), 99.9 (C1′), 87.6 (C4′), 77.4 (C2′), 69.7 (C3′), 60.1 (C5′); IR (cm−1) 3299, 1700, 1398, 1080, 982, 887, 795 (see FIG. 8). XRPD (degrees) 14.2, 17.1, 20.5, 22.7, 23.8, 25.1, 26.8, 34.2 X-ray powder diffraction (XRPD) data are included as FIG. 6. The XRPD serves as a fingerprint for the crystalline form of nicotinamide riboside chloride with only trace residual solvents present.

Data set [3] deals with Human primary dermal fibroblasts (HDFa). The data set can be described thus: NAD measurement in dermal fibroblasts treated with NR chloride (ADPR cyclase enzymatic assay, absorbance 405 nm). It counts as cell-based. The settings on record: for NAD levels: FIG. 16. The method, then:
Human primary dermal fibroblasts derived from adult human skins (HDFa, Life technologies, Grand Island, NY, Passage 2-4) were grown in Medium 106 (Life Technologies) supplemented with Low Serum Growth Supplement (LSGS) (Life Technologies) and seeded in 12-well plates with density at 2×10^5 cells per well and 1 ml of culture medium in each well.
Stock solution of NR chloride (MW: 322.742, GSK3002633B) was prepared freshly in water at 100 mM. Cells were treated with NR chloride at different concentrations as shown in […] for 6 and 24 hrs, washed twice with PBS containing 5 mM EDTA, and then subject to Nicotinamide adenine dinucleotide (NAD) measurement. In brief, acetonitrile (ACN) lysis buffer (Ammonium Acetate (50 mM) and 90% acetonitrile) was added to each well (200 μl/well) to lyse the cells at RT for 5-10 mins by gently rotating on a culture plate shaker at a low speed. Enzyme master mix (300 μM of 5-Amino-(3,4′-bipyridin)-6(1H)-one (Inamrinone) (Sigma-Aldrich), a substrate for ADP ribosyl cyclase (ADPR cyclase)) and 30 nM ADPR Cyclase (Sigma, St. Louis, Mont.), in 75 mM HEPES pH7 buffer (Life Technologies)) was added to the lysed cells (400 μl of enzyme master mix/well). Enzymatic reaction was incubated at RT for ˜30 min. At the end of incubation, the supernatant (200 μl) of the reaction solution from each well was transferred to each well of a 96-well plate and absorbance was read twice in the 96-well plate at 405 nm using a plate reader (Spectra Maxplus, Molecular Devices, Sunnyvale, Calif.). A mixture of enzyme master mix and ACN extraction solution at 2:1 ratio was used as a blank reference.
Isolated, chemically-pure NAD (Sigma) was used as a positive control. Other NAD assays are known in the art or otherwise publically available as a kit (see, e.g., Neubert, D., et al., Biochim. Biophys. Acta, 1964, 92, 610-12; Emanuelli, M., et al. J. Chromatog. B. 676, 13-18; and NAD/NADH Cell-Based Assay Kit by Cayman Chemical).

The structures appear in SMILES notation.

With `NC(=O)c1ccc[n+]([C@@H]2O[C@H](CO)[C@@H](O)[C@H]2O)c1.[Cl-]` [Example 3, 3-carbamoyl-1-((2R,3R,4S,5R)-3,4-dihydroxy-5-(hydroxymethyl)tetrahydrofuran-2-yl)pyridin-1-ium chloride], the “behaviour on the filter under ambient conditions” value in data set [1] was “could be filtered under ambient conditions while remaining free-flowing”.

Turning to `NC(=O)c1ccc[n+]([C@@H]2O[C@H](CO)[C@@H](O)[C@H]2O)c1.[Cl-]` [Example 4, nicotinamide riboside chloride], the “time to complete decomposition, without melting” value in data set [2] (100° C. at <1 mm Hg) is reported as at most 17 min. In addition, the “resistance to decomposition upon heating” value in data set [2] (compared with amorphous forms of nicotinamide riboside) is recorded as “far more resistant to decomposition upon heating than amorphous forms”. Further, in data set [2] (heated at 80° C. for 1 h and <1 mm Hg), the decomposition is under 3%.

Regarding `NC(=O)c1ccc[n+]([C@@H]2O[C@H](CO)[C@@H](O)[C@H]2O)c1.[Cl-]` [NR chloride, nicotinamide riboside chloride], the NAD levels result in data set [3] (6 hrs treatment) and in data set [3] (24 hrs treatment) was “dose-dependently increased NAD levels” throughout. Further, the “intracellular NAD levels” value in data set [3] (FIG. 16, time not given) is recorded as “dose-dependently increases intracellular NAD levels”.

(Values after patent US10316054B2, “Preparation and use of crystalline beta-D-nicotinamide riboside” (GlaxoSmithKline Intellectual Property (No. 2) Limited, priority 2014, dated 2019).)
